Data set [1] relates to CHO-7W cells expressing wildtype human APP. Nature of the data set: sAPPβ and Aβ1-42 production in CHO-7W cells (AlphaLISA). Format: cell-based, Chinese hamster. As to the method:
Culture Media was collected and frozen. Media was assayed using an AlphaLISA for Aβ1-42 (Perkin Elmer catalog # AL276C), sAPPα (R&D Systems catalog # AF1168 conjugated with Perkin Elmer acceptor beads catalog # 6772001 + 2B3 antibody from IBL catalog # 11088 biotinylated), and sAPPβ (Perkin Elmer AL276-acceptor + IBL catalog # 18957 biotinylated). For the assay, 2 μL of diluted or undiluted sample was added to a 384 well plate, followed by 2 μL of the respective antibody mixture. This was incubated for 1 h. Afterwards, 2 μL of donor beads was added to each well, followed by a 30-min incubation in the dark, after which the signal was read.
For orientation: Alpha assays give light when donor and acceptor beads are brought close together.

Data set [2] has as its target T1, human serum albumin (HSA) (Homo sapiens, UniProt P02768).
T1 construct: purchased Chiral Technologies H15L-109
Nature of the data set: Human serum albumin (HSA) binding assay. It counts as in vitro ADME. The method, then: Human serum albumin (HSA) binding assay
The liquid chromatography-ultraviolet/visible spectroscopy (LC-UV/Vis) assay was performed on a 1290 Infinity HPLC system (Agilent Technologies) with an HPLC column containing immobilized HSA
([…]® CAN, Chiral Technologies, Cat#H15L-109, 5 µm 50 x 4 mm). The HPLC method utilized an isocratic gradient containing 100% 6.7 mM phosphate buffer saline (pH 7.4). The retention time of the compound (tr) and injection peak were recorded.
The percent protein binding (P) was calculated using the following equations:
K’ = (tr – tm) / tm; P = 100 x [K’ / (K’ + 1)] […]
The […]
KIAM = (tr – t0) / t0; Pm = (KIAM / MW4) x 1010
Compounds with a Pm >0.85 are predicted to be BBB permeable (CNS+) at pH 7.4.
Brain Tissue Binding Assay […]
Cat#23235). Brain homogenate was diluted to 20 mg/mL in PBS (pH 7.4) and added to Slide-A-Lyzer™ MINI Dialysis Devices, 10K MWCO dialysis cups (Thermo Fisher Scientific, Cat#PI88401) in a 48-well plate containing PBS (500 µL; pH 7.4). 1 µL of 1 mM compound was added to the brain homogenate (final concentration: 2 µM compound, 0.5% DMSO) and incubated on a rocker for 4.5 hours at 37 °C. 50 µL of brain homogenate (within the dialysis cup) and PBS (within the 48-well plate) were transferred to new microcentrifuge tubes containing 200 µL of quenching reagent (100% acetonitrile) containing internal […]
standard. […]

Another data set in a line: Plasma stability assay. Format: in vitro ADME. Conditions: human plasma diluted 2-fold in PBS, pH 7.4, 37 °C, 180 min, read-out: Plasma stability t1/2. The method, then: The effects of candidate ASBIs on BACE2 activity was assessed using the R&D Systems BACE2 activity assay kit (Catalog #: 4097-AS and ES010) formatted from to the manufacturers. For the assay, 4 μL of assay buffer was added to each well, followed by 2 μL of BACE2 diluted in assay buffer to 10 ng/µL.
Then, 2 μL of inhibitor, at the appropriate concentrations were added to the wells and incubated for 30 minutes at room temperature. For all dilutions of inhibitor, drug stock solutions of 10 mM in DMSO were diluted to 50 μM in water; subsequent dilutions were in 0.5% DMSO. Afterwards, 2 μL of fluorogenic BACE2 substrate, diluted to 50 μM in assay buffer, were added to each well, after which the signal generated was read every 30 minutes at 25 °C for 2 hr (Fig S2).
FAH65 and its enantiomers at 10 mM in 100% DMSO was diluted in PBS pH 7.4 to 100, 10, 1, and 0.1 µM; plus, a vehicle-only control. The solutions were incubated at 37 °C for 90 min and centrifuged at 16K x g for 5 min. An aliquot of each supernatant was analyzed by LC-MS/MS. […]
Kinetic solubility (µM) was calculated using the trendline equation with maximum chromatographic peak area observed in the aqueous sample. […]
([…]® CAN, Chiral Technologies, Cat#H15L-109, 5 µm 50 x 4 mm). […] The retention time of the compound (tr) and injection peak were recorded.
The percent protein binding (P) was calculated using the following equations: […]

Another data set in a line: Kinetic solubility assay. It counts as physicochemical. Conditions: aqueous buffer, kinetic from dmso stock, PBS pH 7.4, 37 °C. The method, then:
FAH65 and its enantiomers at 10 mM in 100% DMSO was diluted in PBS pH 7.4 to 100, 10, 1, and 0.1 µM; plus, a vehicle-only control. The solutions were incubated at 37 °C for 90 min and centrifuged at 16K x g for 5 min. An aliquot of each supernatant was analyzed by LC-MS/MS. A standard curve was generated by plotting the known amount of analyte per standard in DMSO vs. chromatographic peak […]
Kinetic solubility (µM) was calculated using the trendline equation with maximum chromatographic peak area observed in the aqueous sample. (Table S3)
Liver microsome stability assay
A 1 µL sample of 1 mM FAH65 and its enantiomers in 100% DMSO was added to 1 mL of 0.5 mg/mL human liver microsomes (Thermo Fisher Scientific, Cat# HMMPL) in PBS pH 7.4, 2 mM NADPH, and 2 mM MgCl2; and incubated at 37 °C for 120 min. Aliquots (50 µL) of the microsome solution were taken […]
quenching solution containing an internal standard. Solutions were clarified by centrifugation (16K x g, 5 min) and supernatants transferred to new tubes and lyophilized. Samples were reconstituted in 100 µL of 50/50/0.1 water/acetonitrile/formic acid prior to analysis via LC-MS/MS. […]
One µL FAH65 and its enantiomers (1 mM in 100% DMSO) was added to human peripheral blood plasma (Cat#70039, Stemcell Technologies Inc) diluted 2-fold in PBS (1000 µL, pH 7.4) and incubated […]

Molecules are shown by their SMILES. Values after ≈ are worked out from the molar mass of the structure shown.

T1 sequence (P02768 25-609): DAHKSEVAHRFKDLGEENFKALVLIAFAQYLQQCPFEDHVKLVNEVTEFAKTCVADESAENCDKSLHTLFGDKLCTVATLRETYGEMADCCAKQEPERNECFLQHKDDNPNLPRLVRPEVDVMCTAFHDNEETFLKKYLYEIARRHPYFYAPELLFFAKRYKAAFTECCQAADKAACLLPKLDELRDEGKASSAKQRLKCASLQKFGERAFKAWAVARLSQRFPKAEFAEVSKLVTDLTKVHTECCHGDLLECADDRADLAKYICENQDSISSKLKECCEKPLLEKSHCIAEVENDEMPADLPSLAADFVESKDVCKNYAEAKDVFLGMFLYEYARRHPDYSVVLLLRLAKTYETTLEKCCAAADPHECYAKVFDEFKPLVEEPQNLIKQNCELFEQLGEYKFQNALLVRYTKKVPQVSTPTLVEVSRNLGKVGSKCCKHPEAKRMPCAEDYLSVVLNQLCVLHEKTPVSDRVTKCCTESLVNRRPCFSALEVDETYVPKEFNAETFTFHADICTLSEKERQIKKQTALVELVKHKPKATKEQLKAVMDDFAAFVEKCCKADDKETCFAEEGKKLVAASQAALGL

Molecule `Cc1cc(C2(c3cccc(-c4cncnc4)c3)N=C(N)N(C)C2=O)ccc1OC(F)F` (stereo not drawn) [FAH65] displayed a sAPPβ reduction in data set [1] greater than 90%. Besides, in data set [1] (1 μM, 24-h treatment, in words), the sAPPβ production result is “decrease”. Besides, the Aβ1-42 production entry in data set [1] (1 μM, in words) is on record as “decrease”. Further, the “Plasma (HSA) binding, funbound” value in data set [2] is listed as 0.44%. The half-life at 1 µM in “Plasma stability assay” is greater than 3 h. The molecule also had a solubility (kinetic) at 90 min in “Kinetic solubility assay” of 88 µM (≈ 37.3 µg/mL).

The solubility (kinetic) is solubility judged after dilution from a stock solution rather than from solid.

These data come from paper PMC12491701, “Discovery of an APP-selective BACE1 inhibitor for Alzheimer's disease” (Neurotherapeutics, 2025).
